# Assay results taken from EP3521435A1, “A HIGH STRINGENCY SELECTION SYSTEM FOR PROTEIN EXPRESSION IN PROLINE-AUXOTROPHIC CELLS” (Bayer AG, priority 2018, dated 2019).
# Assays:
# CHO-K1 cells [1] = test: Batch fermentation in shake flasks of human IgG1 expressing stable cell populations (Poros A-HPLC titer, viable cell density, viability); type: cell-based, Chinese hamster; conditions: pJF1576; for Productivity profile: human IgG1
# Procedure: (§1) To efficiently test the impact of different procedures on improving selection stringency, experimental testing in stable cell populations was performed. As test molecules, enhanced green fluorescent protein (GFP) as well as a human IgG1 were chosen. CHO-K1 cells adapted to growth in suspension in defined medium were obtained from SAFC and cultivated in EX-CELL CD CHO Fusion medium (SAFC 14365C). Custom-made EX-CELL CD CHO Fusion medium without L-Proline (Pro) and without L-Ornithine (Orn) ("proline-free medium") was obtained from SAFC. The expression vector system was based on modified versions of "CET 1019 AS-puro-SceI" and "CET 1019 AD-puro-SceI" for GFP and human IgG1, respectively, from Merck-Millipore, containing the Puromycin selection marker (Puromycin N-acetyl-transferase) known to exert a high selection stringency. To minimize variations in cell populations derived from using different transfections or different vectors, the first series of experiments were conducted using vectors into which a P5CS expression cassette was cloned upstream of a UCOE element, in addition to the Puromycin selection marker present downstream of a gene of interest. This way, it was possible to pool different transfections using the same vector to obtain a common starting point, and split the mixture according to different selection conditions, minimizing any variations that are not due to selection conditions themselves. Expression of long and short isoform of murine P5CS (Protein: Delta-1-pyrroline-5-carboxylate synthase; Gene: Aldh18a1; UniProtKB accession number: Q9Z110-1 & Q9Z110-2) was driven by a SV40 promoter. A SV40 polyadenylation sequence was used at the 3' end of the gene. More details can be found in Table 1. Typically, CHO cells were cultivated in EX-CELL CD CHO Fusion medium containing 6 mM GlutaMAX (Thermo Fisher, 35050-38) ("CD-Fusion medium") at 37 °C with 5% CO2. Cells were grown to logarithmic phase under shaking conditions for transfections. 1e7 cells/cuvette were transfected using nucleofection (Amaxa Nucleofector II, following the manufacturer's recommendations) with 5 µg of linearized DNA. After transfection, cells were taken up in 1 ml medium and transferred into 1 well of a 6 well microtiter plate (MTP) already containing 1 ml medium. The cells were incubated for 24 h without shaking, after which 9 ml medium were added and cells were washed (either in standard or proline-free medium). Multiple transfections were pooled, if applicable. Cells were adjusted to 2e5 viable cells/ml and 10 ml were transferred to T-25 flasks. Reference cell populations were selected using 10 µg/ml Puromycin in CD-Fusion medium. For P5CS-based selection, EX-CELL CD CHO Fusion medium (custom-made, SAFC) containing 6 mM GlutaMAX without proline and without ornithine was used ("proline-free" or "CD-Fusion w/o Pro" medium), with or without additional selection pressure.
# (§2) Cell viability of the different populations was monitored over time. As soon as cell populations appeared to recover from selection pressure, cells were transferred to Shake Flask or TubeSpins for expansion in suspension under shaking conditions. Subsequently, stable cell populations transfected with IgG were seeded at 2e5 viable cells/ml for batch fermentation without selection pressure (i.e. standard CD-Fusion medium containing proline and no other selective agents). The cells were cultivated for 5-10 days, viable cell densities and productivity were monitored over time. IgG titers were determined using Poros A-HPLC method. Typically, final batch titers were recorded at a time point at which majority of cultures had around 70% viability. Stable cell populations transfected with GFP vector were subjected to analysis by flow cytometry using Guava easyCyte 8HT Benchtop Flow Cytometer (Millipore). 250 µl of cell culture were transferred to 96 MTP and washed with PBS. Dead cells were excluded from analysis using propidium iodide (PI). […]
# CHO-K1 cells [2] = test: Cell viability post-transfection of transfected cell populations under selection conditions; type: cell-based, Chinese hamster; conditions: for recovery of cultures: 0.8 mM DHP; for Viability on day 15 post-transfection: pJF2460
# Procedure: as §1, §2
# [3] = Day 7 after inoculation, selected in CD-Fusion w/o Pro + 0.1 mM DHP, non-selecting conditions
# [4] = Day 7 after inoculation, selected in CD-Fusion w/o Pro + 0.1 mM DHP, selective conditions
# [5] = Day 7 after inoculation, selected in CD-Fusion w/o Pro + 0.2 mM DHP, non-selecting conditions
# [6] = Day 7 after inoculation, selected in CD-Fusion w/o Pro + 0.2 mM DHP, selective conditions
# [7] = Day 7 after inoculation, selected in CD-Fusion w/o Pro + 0.4 mM DHP, non-selecting conditions
# [8] = Day 7 after inoculation, selected in CD-Fusion w/o Pro + 0.4 mM DHP, selective conditions
# [9] = Day 9 after inoculation, selected in CD-Fusion w/o Pro + 0.05 mM DHP, non-selecting conditions
# [10] = Day 9 after inoculation, selected in CD-Fusion w/o Pro + 0.1 mM DHP, non-selecting conditions
# [11] = Day 9 after inoculation, selected in CD-Fusion w/o Pro + 0.2 mM DHP, non-selecting conditions
# [12] = Day 9 after inoculation, selected in CD-Fusion w/o Pro + 0.4 mM DHP, non-selecting conditions
# [13] = pJF1555, CD-Fusion w/o Pro + 0.2 mM DHP
# [14] = pJF1576, CD-Fusion w/o Pro + 0.2 mM DHP
# [15] = pJF1576, CD-Fusion w/o Pro + 0.4 mM DHP
structure (smiles),measurement,setting,value
"O=C(O)[C@@H]1C=CCN1 [DHP, 3,4-Dehydro-L-Proline]",Viability profile,CHO-K1 cells [1]; [3],95.6%
same,Viable cell density profile,CHO-K1 cells [1]; [3],"7,9E+06 VCD/ml"
same,Viability profile,CHO-K1 cells [1]; [4],32.2%
same,Viable cell density profile,CHO-K1 cells [1]; [4],4.0E+06 VCD/ml
same,Viability profile,CHO-K1 cells [1]; [5],97.4%
same,Viable cell density profile,CHO-K1 cells [1]; [5],"9,6E+06 VCD/ml"
same,Viability profile,CHO-K1 cells [1]; [6],93.2%
same,Viable cell density profile,CHO-K1 cells [1]; [6],9.1E+06 VCD/ml
same,Viability profile,CHO-K1 cells [1]; [7],98.1%
same,Viable cell density profile,CHO-K1 cells [1]; [7],"1,1E+07 VCD/ml"
same,Viability profile,CHO-K1 cells [1]; [8],56.1%
same,Viable cell density profile,CHO-K1 cells [1]; [8],6.9E+06 VCD/ml
same,Productivity profile,CHO-K1 cells [1]; [9],115.5 mg/L
same,Productivity profile,CHO-K1 cells [1]; [10],127.1 mg/L
same,Productivity profile,CHO-K1 cells [1]; [11],153.7 mg/L
same,Productivity profile,CHO-K1 cells [1]; [12],164.7 mg/L
same,Viability profile,CHO-K1 cells [1]; [9],19.5%
same,Viable cell density profile,CHO-K1 cells [1]; [9],"2,5E+06 VCD/ml"
same,Viability profile,CHO-K1 cells [1]; [10],5.1%
same,Viable cell density profile,CHO-K1 cells [1]; [10],"6,4E+05 VCD/ml"
same,Viability profile,CHO-K1 cells [1]; [11],18.7%
same,Viable cell density profile,CHO-K1 cells [1]; [11],"2,2E+06 VCD/ml"
same,Viability profile,CHO-K1 cells [1]; [12],21.7%
same,Viable cell density profile,CHO-K1 cells [1]; [12],"3,1E+06 VCD/ml"
same,recovery of cultures,"CHO-K1 cells [2]; pJF1555, even after prolonged incubations",did not recover
same,recovery of cultures,CHO-K1 cells [2]; pJF1576,did not recover
same,Viability on day 12 post-transfection,"CHO-K1 cells [2]; pJF1555, CD-Fusion w/o Pro + 0.05 mM DHP",83%
same,Viability on day 12 post-transfection,"CHO-K1 cells [2]; pJF1555, CD-Fusion w/o Pro + 0.1 mM DHP",53%
same,Viability on day 12 post-transfection,CHO-K1 cells [2]; [13],40%
same,Viability on day 19 post-transfection,CHO-K1 cells [2]; [13],27%
same,Viability on day 12 post-transfection,"CHO-K1 cells [2]; pJF1555, CD-Fusion w/o Pro + 0.4 mM DHP",20%
same,Viability on day 12 post-transfection,"CHO-K1 cells [2]; pJF1555, CD-Fusion w/o Pro + 0.8 mM DHP",13%
same,Viability on day 19 post-transfection,"CHO-K1 cells [2]; pJF1555, CD-Fusion w/o Pro + 1 mM DHP",7%
same,Viability on day 19 post-transfection,"CHO-K1 cells [2]; pJF1555, CD-Fusion w/o Pro + 5 mM DHP",6%
same,Viability on day 19 post-transfection,"CHO-K1 cells [2]; pJF1555, CD-Fusion w/o Pro + 10 mM DHP",7%
same,DHP concentration at which cultures did not recover,"CHO-K1 cells [2]; pJF1555, proline-free medium, even after extension of cultivation",≥ 1 mM
same,Viability on day 12 post-transfection,"CHO-K1 cells [2]; pJF1576, CD-Fusion w/o Pro + 0.05 mM DHP",91%
same,Viability on day 12 post-transfection,"CHO-K1 cells [2]; pJF1576, CD-Fusion w/o Pro + 0.1 mM DHP",74%
same,Viability on day 12 post-transfection,CHO-K1 cells [2]; [14],49%
same,Viability on day 21 post-transfection,CHO-K1 cells [2]; [14],87.4%
same,Viability on day 12 post-transfection,CHO-K1 cells [2]; [15],28%
same,Viability on day 21 post-transfection,CHO-K1 cells [2]; [15],65.3%
same,Viability on day 21 post-transfection,"CHO-K1 cells [2]; pJF1576, CD-Fusion w/o Pro + 0.5 mM DHP",42.8%
same,Viability on day 21 post-transfection,"CHO-K1 cells [2]; pJF1576, CD-Fusion w/o Pro + 0.6 mM DHP",35.7%
same,Viability on day 12 post-transfection,"CHO-K1 cells [2]; pJF1576, CD-Fusion w/o Pro + 0.8 mM DHP",23%
same,Viability on day 21 post-transfection,"CHO-K1 cells [2]; pJF1969, CD-Fusion w/o Pro + 0.2 mM DHP",26.5%
same,Viability on day 21 post-transfection,"CHO-K1 cells [2]; pJF1969, CD-Fusion w/o Pro + 0.4 mM DHP",22.9%
same,Viability on day 21 post-transfection,"CHO-K1 cells [2]; pJF1969, CD-Fusion w/o Pro + 0.5 mM DHP",23.3%
same,Viability on day 21 post-transfection,"CHO-K1 cells [2]; pJF1969, CD-Fusion w/o Pro + 0.6 mM DHP",25.9%
same,Viability on day 21 post-transfection,"CHO-K1 cells [2]; pJF1970, CD-Fusion w/o Pro + 0.2 mM DHP",18.2%
same,Viability on day 21 post-transfection,"CHO-K1 cells [2]; pJF1970, CD-Fusion w/o Pro + 0.4 mM DHP",21.4%
same,Viability on day 21 post-transfection,"CHO-K1 cells [2]; pJF1970, CD-Fusion w/o Pro + 0.5 mM DHP",18.3%
same,Viability on day 21 post-transfection,"CHO-K1 cells [2]; pJF1970, CD-Fusion w/o Pro + 0.6 mM DHP",18.2%
same,Viability on day 22 post-transfection,"CHO-K1 cells [2]; pJF2055, CD-Fusion w/o Pro + 0.02 mM DHP",99.5%
same,Viability on day 22 post-transfection,"CHO-K1 cells [2]; pJF2055, CD-Fusion w/o Pro + 0.03 mM DHP",99.2%
same,Viability on day 22 post-transfection,"CHO-K1 cells [2]; pJF2055, CD-Fusion w/o Pro + 0.04 mM DHP",99.2%
same,Viability on day 22 post-transfection,"CHO-K1 cells [2]; pJF2055, CD-Fusion w/o Pro + 0.06 mM DHP",83.3%
same,Viability on day 22 post-transfection,"CHO-K1 cells [2]; pJF2055, CD-Fusion w/o Pro + 0.07 mM DHP",65.3%
same,Viability on day 22 post-transfection,"CHO-K1 cells [2]; pJF2055, CD-Fusion w/o Pro + 0.08 mM DHP",36.3%
same,Viability on day 22 post-transfection,"CHO-K1 cells [2]; pJF2303, CD-Fusion w/o Pro + 0.02 mM DHP",99.3%
same,Viability on day 22 post-transfection,"CHO-K1 cells [2]; pJF2303, CD-Fusion w/o Pro + 0.04 mM DHP",99.6%
same,Viability on day 22 post-transfection,"CHO-K1 cells [2]; pJF2303, CD-Fusion w/o Pro + 0.06 mM DHP",99.4%
same,Viability on day 22 post-transfection,"CHO-K1 cells [2]; pJF2303, CD-Fusion w/o Pro + 0.08 mM DHP",99.2%
same,Viability on day 22 post-transfection,"CHO-K1 cells [2]; pJF2303, CD-Fusion w/o Pro + 0.2 mM DHP",98.4%
same,Viability on day 22 post-transfection,"CHO-K1 cells [2]; pJF2303, CD-Fusion w/o Pro + 0.3 mM DHP",98.2%
same,Viability on day 22 post-transfection,"CHO-K1 cells [2]; pJF2303, CD-Fusion w/o Pro + 0.4 mM DHP",98.5%
same,Viability on day 22 post-transfection,"CHO-K1 cells [2]; pJF2303, CD-Fusion w/o Pro + 0.5 mM DHP",99.1%
same,Viability on day 15 post-transfection,CHO-K1 cells [2]; CD-Fusion w/o Pro + 0.01 mM DHP,73.2%
same,Viability on day 15 post-transfection,CHO-K1 cells [2]; CD-Fusion w/o Pro + 0.03 mM DHP,44.1%
same,Viability on day 15 post-transfection,CHO-K1 cells [2]; CD-Fusion w/o Pro + 0.04 mM DHP,30.6%
same,Viability on day 15 post-transfection,CHO-K1 cells [2]; CD-Fusion w/o Pro + 0.05 mM DHP,22.8%
